Experimental data published in ChEMBL document CHEMBL5291721, “A preclinical secondary pharmacology resource illuminates target-adverse drug reaction associations of marketed drugs” (Nat Commun, 2023).

Legend:
[1] = molecular target: T1, Gastrin/cholecystokinin type B receptor (Homo sapiens, UniProt P32239)
T1 sequence (P32239 whole entry): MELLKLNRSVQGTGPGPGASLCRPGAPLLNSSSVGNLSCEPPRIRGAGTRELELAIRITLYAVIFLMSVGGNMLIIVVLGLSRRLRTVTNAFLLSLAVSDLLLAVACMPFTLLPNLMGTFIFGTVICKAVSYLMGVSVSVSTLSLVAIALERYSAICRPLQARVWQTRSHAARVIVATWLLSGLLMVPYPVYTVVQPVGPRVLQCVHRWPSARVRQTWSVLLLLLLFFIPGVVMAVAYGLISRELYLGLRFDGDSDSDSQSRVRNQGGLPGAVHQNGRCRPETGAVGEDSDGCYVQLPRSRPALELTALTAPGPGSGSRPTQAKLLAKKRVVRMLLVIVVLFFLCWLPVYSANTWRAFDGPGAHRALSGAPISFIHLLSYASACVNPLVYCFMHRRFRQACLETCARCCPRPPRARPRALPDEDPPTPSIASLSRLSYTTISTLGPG

B2 bradykinin receptor = molecular target: T2, B2 bradykinin receptor (Homo sapiens, UniProt P30411)
T2 sequence (P30411 whole entry): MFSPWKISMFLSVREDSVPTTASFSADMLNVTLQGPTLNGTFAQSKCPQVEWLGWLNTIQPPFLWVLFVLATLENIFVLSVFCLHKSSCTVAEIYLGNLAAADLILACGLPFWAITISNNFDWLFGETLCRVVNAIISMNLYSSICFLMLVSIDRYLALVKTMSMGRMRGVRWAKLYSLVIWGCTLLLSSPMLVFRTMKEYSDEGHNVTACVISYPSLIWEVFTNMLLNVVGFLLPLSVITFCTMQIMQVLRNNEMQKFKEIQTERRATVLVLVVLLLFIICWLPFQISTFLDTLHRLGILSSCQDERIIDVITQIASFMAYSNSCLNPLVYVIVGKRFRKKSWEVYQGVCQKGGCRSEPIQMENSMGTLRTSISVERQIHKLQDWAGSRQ

[2] = molecular target: T3, Alpha-1A adrenergic receptor (Homo sapiens, UniProt P35348); assay type: functional, cell-based
T3 sequence (P35348 whole entry): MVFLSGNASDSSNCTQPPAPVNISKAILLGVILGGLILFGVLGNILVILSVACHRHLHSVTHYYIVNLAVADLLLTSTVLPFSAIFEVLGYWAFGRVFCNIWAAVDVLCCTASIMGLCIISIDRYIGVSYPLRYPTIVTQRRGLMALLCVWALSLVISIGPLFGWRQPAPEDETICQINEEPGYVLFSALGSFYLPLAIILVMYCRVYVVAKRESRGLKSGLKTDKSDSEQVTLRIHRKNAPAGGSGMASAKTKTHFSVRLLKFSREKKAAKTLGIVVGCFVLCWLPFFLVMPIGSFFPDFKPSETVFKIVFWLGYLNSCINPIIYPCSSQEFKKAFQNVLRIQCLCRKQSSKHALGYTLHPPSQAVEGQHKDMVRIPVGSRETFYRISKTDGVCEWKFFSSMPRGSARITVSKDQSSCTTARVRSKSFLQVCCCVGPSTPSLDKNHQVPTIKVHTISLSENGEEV

Estrogen receptor = molecular target: T4, Estrogen receptor (Homo sapiens, UniProt P03372)
T4 sequence (P03372 whole entry): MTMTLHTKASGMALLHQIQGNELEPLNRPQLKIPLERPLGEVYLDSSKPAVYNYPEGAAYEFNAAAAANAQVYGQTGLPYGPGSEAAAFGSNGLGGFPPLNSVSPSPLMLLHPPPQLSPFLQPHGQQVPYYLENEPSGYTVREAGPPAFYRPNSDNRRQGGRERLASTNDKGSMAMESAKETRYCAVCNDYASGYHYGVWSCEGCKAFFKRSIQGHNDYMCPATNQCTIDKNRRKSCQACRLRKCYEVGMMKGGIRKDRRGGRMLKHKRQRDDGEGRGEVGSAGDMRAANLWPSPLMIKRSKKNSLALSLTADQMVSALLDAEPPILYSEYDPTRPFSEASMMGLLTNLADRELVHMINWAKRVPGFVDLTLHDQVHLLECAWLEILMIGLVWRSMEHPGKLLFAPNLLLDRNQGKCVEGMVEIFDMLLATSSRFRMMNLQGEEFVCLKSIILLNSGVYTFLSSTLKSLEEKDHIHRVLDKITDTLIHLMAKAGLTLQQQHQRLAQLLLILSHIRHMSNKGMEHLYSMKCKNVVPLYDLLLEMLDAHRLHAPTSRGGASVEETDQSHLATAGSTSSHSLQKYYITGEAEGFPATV

[3] = molecular target: T5, Muscarinic acetylcholine receptor M2 (Homo sapiens, UniProt P08172)
T5 sequence (P08172 whole entry): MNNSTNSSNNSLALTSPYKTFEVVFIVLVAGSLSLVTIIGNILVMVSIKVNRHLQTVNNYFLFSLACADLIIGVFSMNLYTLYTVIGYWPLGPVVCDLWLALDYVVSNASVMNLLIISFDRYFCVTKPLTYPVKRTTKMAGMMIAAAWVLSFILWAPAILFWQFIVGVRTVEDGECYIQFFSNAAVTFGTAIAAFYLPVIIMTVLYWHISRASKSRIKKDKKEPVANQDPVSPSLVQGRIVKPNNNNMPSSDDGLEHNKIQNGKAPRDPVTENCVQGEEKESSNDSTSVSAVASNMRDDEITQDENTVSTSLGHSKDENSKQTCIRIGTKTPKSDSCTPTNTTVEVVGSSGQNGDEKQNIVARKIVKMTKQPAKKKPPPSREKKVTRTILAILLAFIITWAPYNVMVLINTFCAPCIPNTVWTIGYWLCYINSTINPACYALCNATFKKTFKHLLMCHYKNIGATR

[4] = molecular target: 5-hydroxytryptamine receptor 2B (Homo sapiens, UniProt P41595); assay type: functional, cell-based
Sequence of 5-hydroxytryptamine receptor 2B (P41595 whole entry): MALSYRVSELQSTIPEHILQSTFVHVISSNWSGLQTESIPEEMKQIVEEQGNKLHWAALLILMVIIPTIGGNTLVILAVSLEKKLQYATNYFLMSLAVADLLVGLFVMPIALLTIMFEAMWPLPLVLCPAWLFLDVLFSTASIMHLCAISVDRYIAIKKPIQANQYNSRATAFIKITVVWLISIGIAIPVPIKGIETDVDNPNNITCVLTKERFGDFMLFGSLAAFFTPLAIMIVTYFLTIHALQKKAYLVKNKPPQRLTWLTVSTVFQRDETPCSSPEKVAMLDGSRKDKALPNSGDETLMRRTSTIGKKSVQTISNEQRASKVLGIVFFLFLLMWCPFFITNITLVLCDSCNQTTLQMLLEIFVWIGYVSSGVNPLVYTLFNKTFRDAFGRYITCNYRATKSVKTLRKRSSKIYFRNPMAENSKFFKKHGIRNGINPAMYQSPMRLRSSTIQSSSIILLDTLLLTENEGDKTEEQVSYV

[5] = molecular target: 5-hydroxytryptamine receptor 2A (Homo sapiens, UniProt P28223); assay type: functional, cell-based
Sequence of 5-hydroxytryptamine receptor 2A (P28223 whole entry): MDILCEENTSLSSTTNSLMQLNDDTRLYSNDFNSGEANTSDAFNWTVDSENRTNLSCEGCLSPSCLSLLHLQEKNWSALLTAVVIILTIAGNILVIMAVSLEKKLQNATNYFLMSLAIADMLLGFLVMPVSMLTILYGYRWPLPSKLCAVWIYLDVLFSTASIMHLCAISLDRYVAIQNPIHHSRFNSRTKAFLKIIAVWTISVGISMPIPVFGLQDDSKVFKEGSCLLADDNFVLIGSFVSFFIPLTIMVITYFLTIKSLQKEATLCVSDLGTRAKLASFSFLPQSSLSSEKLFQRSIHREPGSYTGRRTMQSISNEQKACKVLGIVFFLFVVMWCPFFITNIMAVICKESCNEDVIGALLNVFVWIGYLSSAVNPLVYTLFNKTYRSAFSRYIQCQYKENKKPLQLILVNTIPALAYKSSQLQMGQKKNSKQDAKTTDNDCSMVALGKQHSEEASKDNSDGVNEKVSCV
Note: assay procedure not described here.

Structure (SMILES) | AC50 [1] [µM] | AC50 (B2 bradykinin receptor) [µM] | AC50 [2] [µM] | AC50 (Estrogen receptor) [µM] | AC50 [3] [µM] | AC50 [4] [µM] | AC50 [5] [µM]
CCOC(=O)[C@H](CCc1ccccc1)N[C@@H](C)C(=O)N1CCC[C@H]1C(=O)O | > 30 | > 30 |  |  |  |  | 
Nc1nc(N)c2nc(-c3ccccc3)c(N)nc2n1 | > 30 | > 30 | > 30 | > 30 | > 30 | > 30 | 
C[C@H]1O[C@H](O[C@H]2[C@H](O)[C@@H](O)[C@@H](O[C@H]3[C@H](O)[C@@H](O)C(O)O[C@@H]3CO)O[C@@H]2CO)[C@H](O)[C@@H](O)[C@@H]1N[C@H]1C=C(CO)[C@@H](O)[C@H](O)[C@H]1O (some centres undefined) [ACARBOSE] | > 30 | > 30 | > 30 |  | > 30 | > 30 | 
Oc1ncnc2[nH]ncc12 [ALLOPURINOL] | > 30 | > 30 | > 30 | > 30 | > 30 | > 30 | 
CC(N)Cc1ccccc1 (centres undefined) [AMPHETAMINE] | > 30 | > 30 |  | > 30 |  |  | > 30
Cc1cc(O)cc(C)c1Cl [CHLOROXYLENOL] |  |  |  |  | > 30 | > 30 | 
CCC[C@@H]1C[C@@H](C(=O)N[C@@H]([C@H]2O[C@H](SC)[C@H](O)[C@@H](O)[C@H]2O)[C@H](C)Cl)N(C)C1 [CLINDAMYCIN] | > 30 | > 30 |  | > 30 |  |  | 
CN(C)CCCN1c2ccccc2CCc2ccc(Cl)cc21 [CLOMIPRAMINE] |  |  | > 30 |  | 0.451 | > 30 | 
CC(=O)OCC(=O)[C@@]1(O)CC[C@H]2[C@@H]3CCC4=CC(=O)CC[C@]4(C)[C@H]3C(=O)C[C@@]21C [CORTISONE ACETATE] |  |  |  |  |  | > 30 | 
O=C(O)c1cc(-c2ccc(F)cc2F)ccc1O [DIFLUNISAL] |  | > 10 |  | > 10 |  |  | 
CCC(=O)O[C@H]1[C@H](O[C@@H]2[C@@H](C)[C@H](O[C@H]3C[C@@](C)(OC)[C@@H](O)[C@H](C)O3)[C@@H](C)C(=O)O[C@H](CC)[C@@](C)(O)[C@H](O)[C@@H](C)C(=O)[C@H](C)C[C@@]2(C)O)O[C@H](C)C[C@@H]1N(C)C [ERYTHROMYCIN PROPIONATE] |  |  |  |  | > 30 | > 30 | 
C#C[C@]1(O)CC[C@H]2[C@@H]3CCc4cc(O)ccc4[C@H]3CC[C@@]21C [ETHINYL ESTRADIOL] | > 30 | > 30 | > 30 |  | > 30 | > 30 | 
NC(N)=Nc1nc(CSCCC(N)=NS(N)(=O)=O)cs1 [FAMOTIDINE] | > 30 | > 30 |  | > 30 |  |  | 
Cc1c(-c2ccccc2)oc2c(C(=O)OCCN3CCCCC3)cccc2c1=O [FLAVOXATE] |  |  | > 30 |  | 3.39 | > 30 | 
CC1(C)O[C@@H]2C[C@H]3[C@@H]4C[C@H](F)C5=CC(=O)CC[C@]5(C)[C@H]4[C@@H](O)C[C@]3(C)[C@]2(C(=O)CO)O1 [FLURANDRENOLIDE] |  |  | > 30 |  | > 30 | > 30 | 
CC(C)C(=O)Nc1ccc([N+](=O)[O-])c(C(F)(F)F)c1 [FLUTAMIDE] | > 30 | > 30 | > 30 | > 10 | > 30 | > 30 | 
NS(=O)(=O)c1cc2c(cc1Cl)NCNS2(=O)=O [HYDROCHLOROTHIAZIDE] | > 30 | > 30 |  | > 30 |  |  | 
